Measurements published in the Kinase Knowledgebase extract (Sharma et al. 2016).

Target: MAPK14 (human) (UniProt Q16539)
Assay: Inhibition of MAPK14 Kinase Activity

MAPK14 (human), sequence (Q16539 whole entry, looked up): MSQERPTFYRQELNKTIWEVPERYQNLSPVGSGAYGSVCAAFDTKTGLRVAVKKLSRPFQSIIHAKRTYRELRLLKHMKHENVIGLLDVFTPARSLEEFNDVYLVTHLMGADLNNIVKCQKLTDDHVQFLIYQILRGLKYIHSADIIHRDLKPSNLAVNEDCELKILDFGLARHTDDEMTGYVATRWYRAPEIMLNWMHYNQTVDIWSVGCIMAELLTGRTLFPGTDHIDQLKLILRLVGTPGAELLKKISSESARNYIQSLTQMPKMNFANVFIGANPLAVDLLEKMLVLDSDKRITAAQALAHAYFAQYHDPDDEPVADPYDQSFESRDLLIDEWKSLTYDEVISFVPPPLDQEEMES

| Compound | IC50 [nM] |
| --- | --- |
| CCOC(=O)c1sc2c(ccc(=O)n2-c2cccc(C)c2)c1Nc1cccc(C)c1 | ≤ 1000 |
| CCOC(=O)c1sc2c(ccc(=O)n2-c2ccccc2)c1Nc1ccccc1C#N | ≤ 1000 |
| N#Cc1sc2c(ccc(=O)n2-c2ccccc2)c1Nc1ccccc1OC(F)(F)F | ≤ 1000 |
| CCNC(=O)c1sc2c(ccc(=O)n2-c2ccccc2)c1Nc1ccccc1 | ≤ 1000 |
| C=Cc1ccc(-n2c(=O)ccc3c(Nc4ccc(F)cc4F)c(C(=O)OCC)sc32)cc1 | ≤ 1000 |
| C[S+]([O-])c1ccc(-n2c(=O)ccc3c(Nc4ccccc4C#N)c(C(N)=O)sc32)cc1 (centres undefined) | ≤ 1000 |
| N#Cc1sc2c(ccc(=O)n2-c2ccccc2)c1Nc1cccc([N+](=O)[O-])c1 | ≤ 1000 |
| CC(C)(O)CNC(=N)c1sc2c(ccc(=O)n2-c2ccccc2)c1Nc1ccc(F)cc1F | ≤ 1000 |
| CCOC(=O)c1sc2c(ccc(=O)n2-c2ccc(SC)cc2)c1Nc1cccc(C)c1 | ≤ 1000 |
| NC(=O)c1sc2c(ccc(=O)n2-c2ccccc2Cl)c1Nc1ccccc1 | ≤ 1000 |
| O=C(NCCCN1CCOCC1)c1sc2c(ccc(=O)n2-c2ccccc2)c1Nc1ccccc1 | ≤ 1000 |
| CCOC(=O)c1sc2c(ccc(=O)n2Cc2ccccc2)c1Nc1ccccc1 | ≤ 1000 |
| Cc1cccc(Nc2c(C(N)=O)sc3c2ccc(=O)n3CC2CC2)c1 | ≤ 1000 |
| CN(C)c1ccc(-n2c(=O)ccc3c(Nc4ccccc4)c(C(=O)N4CCCC4)sc32)cc1 | ≤ 1000 |
| CCOC(=O)c1sc2c(ccc(=O)n2-c2ccccc2)c1Nc1cccc(OC(F)(F)F)c1 | ≤ 1000 |
| NC(=O)c1sc2c(ccc(=O)n2-c2ccccc2)c1Nc1cccc(OC(F)(F)F)c1 | ≤ 1000 |
| N#Cc1sc2c(ccc(=O)n2-c2ccccc2)c1Nc1cc(Cl)cc(Cl)c1 | ≤ 1000 |
| CN(C)c1ccc(-n2c(=O)ccc3c(Nc4ccccc4)c(C(=O)NCCN4CCCCC4)sc32)cc1 | ≤ 1000 |
| CCOC(=O)c1sc2c(ccc(=O)n2-c2ccccc2)c1Nc1cccc(C#N)c1 | ≤ 1000 |
| Cc1cccc(Nc2c(C#N)sc3c2ccc(=O)n3C2CC2)c1 | ≤ 1000 |
| NC(=O)c1sc2c(ccc(=O)n2-c2ccccc2)c1Nc1ccccc1OC(F)F | ≤ 1000 |
| N#Cc1sc2c(ccc(=O)n2-c2ccccc2)c1Nc1ccc(F)c(Cl)c1 | ≤ 1000 |
| O=C(O)c1sc2c(ccc(=O)n2-c2ccccc2)c1Nc1ccccc1 | ≤ 1000 |
| CCOC(=O)c1sc2c(ccc(=O)n2-c2ccccc2)c1Nc1ccc(Cl)cc1 | ≤ 1000 |
| NC(=O)c1sc2c(ccc(=O)n2-c2ccccc2)c1Nc1cccc(Cl)c1 | ≤ 1000 |
| NC(=O)c1sc2c(ccc(=O)n2CC2CC2)c1Nc1cccc(Br)c1 | ≤ 1000 |

| Compound | IC50 [nM] |
| --- | --- |
| Cc1cc(Nc2c(C(N)=O)sc3c2ccc(=O)n3C2CC2)ccc1F | ≤ 1000 |
| NC(=O)c1sc2c(ccc(=O)n2-c2ccccc2)c1Nc1ccccc1O | ≤ 1000 |
| CCOC(=O)c1sc2c(ccc(=O)n2-c2ccc(C(C)(C)O)cc2)c1Nc1ccccc1 | ≤ 1000 |
| CN(C)CCN(C)C(=O)c1sc2c(ccc(=O)n2-c2ccccc2)c1Nc1ccccc1 | ≤ 1000 |
| Cc1cccc(Nc2c(C#N)sc3c2ccc(=O)n3-c2ccccc2)c1 | ≤ 1000 |
| CCOC(=O)c1sc2c(ccc(=O)n2-c2ccccc2)c1Nc1ccccc1 | ≤ 1000 |
| Cc1cccc(Nc2c(C#N)sc3c2ccc(=O)n3CC2CC2)c1 | ≤ 1000 |
| N#Cc1sc2c(ccc(=O)n2CC2CC2)c1Nc1ccccc1 | ≤ 1000 |
| NC(=O)c1sc2c(ccc(=O)n2-c2ccccc2)c1Nc1ccccc1 | ≤ 1000 |
| CCOC(=O)c1sc2c(ccc(=O)n2CC2CCCCO2)c1Nc1ccc(F)cc1F (centres undefined) | ≤ 1000 |
| CCOC(=O)c1sc2c(ccc(=O)n2-c2ccccc2[N+](=O)[O-])c1Nc1ccc(F)cc1F | ≤ 1000 |
| O=C(c1sc2c(ccc(=O)n2-c2ccccc2)c1Nc1ccc(F)cc1F)N1CCOCC1 | ≤ 1000 |
| NC(=O)c1sc2c(ccc(=O)n2-c2ccccc2[N+](=O)[O-])c1Nc1ccc(F)cc1F | ≤ 1000 |
| Cc1ccc(Nc2c(C#N)sc3c2ccc(=O)n3CC2CC2)c(C)c1 | ≤ 1000 |
| Cc1ccc(Nc2c(C#N)sc3c2ccc(=O)n3CC2CC2)cc1C | ≤ 1000 |
| NC(=O)c1sc2c(ccc(=O)n2-c2ccccc2)c1Nc1ccc(F)c(Cl)c1 | ≤ 1000 |
| CCOC(=O)c1sc2c(ccc(=O)n2-c2ccsc2)c1Nc1ccc(F)c(C)c1 | ≤ 1000 |
| NC(=O)c1sc2c(ccc(=O)n2CC2CC2)c1Nc1ccc(F)c(Cl)c1 | ≤ 1000 |
| N#Cc1sc2c(ccc(=O)n2-c2ccccc2)c1Nc1ccccc1O | ≤ 1000 |
| O=C(O)c1sc2c(ccc(=O)n2-c2ccc3[nH]ccc3c2)c1Nc1ccccc1 | ≤ 1000 |
| N#Cc1sc2c(ccc(=O)n2-c2ccccc2)c1Nc1cccc(Br)c1 | ≤ 1000 |
| CCOC(=O)c1sc2c(ccc(=O)n2-c2ccc(NS(C)(=O)=O)cc2)c1Nc1ccc(F)cc1F | ≤ 1000 |
| CON(C)C(=O)c1sc2c(ccc(=O)n2-c2ccccc2)c1Nc1ccc(F)cc1F | ≤ 1000 |
| N#Cc1ccccc1Nc1c(C(N)=O)sc2c1ccc(=O)n2-c1ccc2[nH]ccc2c1 | ≤ 1000 |
| Cc1cccc(Nc2c(C#N)sc3c2ccc(=O)n3-c2ccc(F)cc2)c1 | ≤ 1000 |
| O=C(NCCN1CCCCC1)c1sc2c(ccc(=O)n2-c2ccccc2)c1Nc1ccc(F)cc1F | ≤ 1000 |

| Compound | IC50 [nM] |
| --- | --- |
| Cc1cccc(Nc2c(C#N)sc3c2ccc(=O)n3-c2ccccc2Cl)c1 | ≤ 1000 |
| Cc1cc(Nc2c(C#N)sc3c2ccc(=O)n3C2CC2)ccc1F | ≤ 1000 |
| CCOC(=O)c1sc2c(ccc(=O)n2-c2ccc(N(C)C)cc2)c1Nc1ccccc1 | ≤ 1000 |
| Cc1cccc(Nc2c(C(N)=O)sc3c2ccc(=O)n3-c2ccc(F)cc2)c1C#N | ≤ 1000 |
| Cc1cc(Nc2c(C(N)=O)sc3c2ccc(=O)n3CC2CC2)ccc1F | ≤ 1000 |
| Cc1cc(Nc2c(C(N)=O)sc3c2ccc(=O)n3-c2ccccc2)ccc1F | ≤ 1000 |
| CCOC(=O)c1sc2c(ccc(=O)n2-c2ccc(SC)cc2)c1Nc1ccccc1C#N | ≤ 1000 |
| C=Cc1ccc(-n2c(=O)ccc3c(Nc4ccccc4)c(C(=O)OCC)sc32)cc1 | ≤ 1000 |
| CCOC(=O)c1sc2c(ccc(=O)n2-c2ccsc2)c1Nc1ccccc1C#N | ≤ 1000 |
| CCOC(=O)c1sc2c(ccc(=O)n2-c2ccc3c(ccn3S(C)(=O)=O)c2)c1Nc1ccccc1C#N | ≤ 1000 |
| CCOC(=O)c1sc2c(ccc(=O)n2-c2ccccc2)c1Nc1ccccc1OC | ≤ 1000 |
| CON(C)C(=O)c1sc2c(ccc(=O)n2-c2ccc(N(C)C)cc2)c1Nc1ccccc1 | ≤ 1000 |
| CCOC(=O)c1sc2c(ccc(=O)n2CC2CC2)c1Nc1cccc(C)c1C#N | ≤ 1000 |
| Cc1cccc(Nc2c(C(N)=O)sc3c2ccc(=O)n3-c2ccccc2)c1C#N | ≤ 1000 |
| Cc1ccc(-n2c(=O)ccc3c(Nc4cccc(C)c4)c(C#N)sc32)cc1 | ≤ 1000 |
| N#Cc1sc2c(ccc(=O)n2-c2ccccc2)c1Nc1cccc(O)c1 | ≤ 1000 |
| Cc1cc(Nc2c(C#N)sc3c2ccc(=O)n3-c2ccccc2C)ccc1F | ≤ 1000 |
| CSc1cccc(Nc2c(C(N)=O)sc3c2ccc(=O)n3-c2ccccc2)c1 | ≤ 1000 |
| Cc1cccc(Nc2c(C#N)sc3c2ccc(=O)n3-c2ccccc2)n1 | ≤ 1000 |
| CCOC(=O)c1sc2c(ccc(=O)n2-c2ccsc2)c1Nc1ccccc1 | ≤ 1000 |
| CCOC(=O)c1sc2c(ccc(=O)n2-c2ccc(S(C)(=O)=O)cc2)c1Nc1cccc(C)c1 | ≤ 1000 |
| N#Cc1sc2c(ccc(=O)n2-c2ccccc2)c1Nc1c(Cl)cccc1Cl | ≤ 1000 |
| CCOC(=O)c1sc2c(ccc(=O)n2-c2ccccc2)c1Nc1cccc(Cl)c1C#N | ≤ 1000 |
| CC(C)(CO)NC(=O)c1sc2c(ccc(=O)n2-c2ccccc2)c1Nc1ccccc1 | ≤ 1000 |
| Cc1ccccc1-n1c(=O)ccc2c(Nc3ccc(F)cc3F)c(C#N)sc21 | ≤ 1000 |
| Cc1cc(=O)n(-c2ccccc2)c2sc(C(N)=O)c(Nc3ccccc3)c12 | ≤ 1000 |

| Compound | IC50 [nM] |
| --- | --- |
| NC(=O)c1sc2c(ccc(=O)n2-c2cccnc2)c1Nc1ccccc1 | ≤ 1000 |
| CON(C)C(=O)c1sc2c(ccc(=O)n2-c2ccccc2)c1Nc1ccccc1 | ≤ 1000 |
| CCc1cccc(Nc2c(C#N)sc3c2ccc(=O)n3-c2ccccc2)c1 | ≤ 1000 |
| Cc1cccc(Nc2c(C(N)=O)sc3c2ccc(=O)n3-c2ccc(S(C)(=O)=O)cc2)c1 | ≤ 1000 |
| O=C(c1sc2c(ccc(=O)n2-c2ccccc2)c1Nc1cccc(Cl)c1)N1CCCC1 | ≤ 1000 |
| NC(=O)c1sc2c(ccc(=O)n2CC2CC2)c1Nc1ccc(F)cc1F | ≤ 1000 |
| CCOC(=O)c1sc2c(ccc(=O)n2-c2ccc3[nH]ccc3c2)c1Nc1ccccc1C#N | ≤ 1000 |
| CCN(CC)C(=O)c1sc2c(ccc(=O)n2-c2ccccc2)c1Nc1ccccc1 | ≤ 1000 |
| N#Cc1sc2c(ccc(=O)n2-c2ccccc2Cl)c1Nc1ccccc1 | ≤ 1000 |
| NC(=O)c1sc2c(ccc(=O)n2-c2ccc(C(O)CO)cc2)c1Nc1ccccc1 (centres undefined) | ≤ 1000 |
| CCOC(=O)c1sc2c(ccc(=O)n2CCOCCOC)c1Nc1ccccc1 | ≤ 1000 |
| CCOC(=O)c1sc2c(ccc(=O)n2CC2CC2)c1Nc1cccc(Br)c1 | ≤ 1000 |
| CCOC(=O)c1sc2c(ccc(=O)n2-c2ccc3c(ccn3C)c2)c1Nc1ccccc1C#N | ≤ 1000 |
| Cc1nccn1CCOc1ccc(-n2c(=O)ccc3c(Nc4ccc(F)cc4F)c(C(N)=O)sc32)cc1 | ≤ 1000 |
| O=C(NCCN1CCCCC1)c1sc2c(ccc(=O)n2CC2CC2)c1Nc1ccccc1 | ≤ 1000 |
| CSc1cccc(Nc2c(C#N)sc3c2ccc(=O)n3-c2ccccc2)c1 | ≤ 1000 |
| Cc1cc(F)ccc1Nc1c(C#N)sc2c1ccc(=O)n2-c1ccccc1 | ≤ 1000 |
| CCOC(=O)c1sc2c(ccc(=O)n2-c2ccccc2)c1Nc1cccc(C)c1 | ≤ 1000 |
| CCOC(=O)c1sc2c(ccc(=O)n2-c2ccc([S+](C)[O-])cc2)c1Nc1ccccc1C#N (centres undefined) | ≤ 1000 |
| N#Cc1cccc(Nc2c(C(N)=O)sc3c2ccc(=O)n3-c2ccccc2)c1 | ≤ 1000 |
| Cc1cc(Nc2c(C(N)=O)sc3c2ccc(=O)n3-c2ccsc2)ccc1F | ≤ 1000 |
| CCOC(=O)c1sc2c(ccc(=O)n2-c2ccccc2)c1Nc1cccnc1Cl | ≤ 1000 |
| Cc1cc(Nc2c(C(=O)N(C)O)sc3c2ccc(=O)n3-c2ccccc2)ccc1F | ≤ 1000 |
| N#Cc1sc2c(ccc(=O)n2-c2ccccc2)c1Nc1cccc(SC(F)(F)F)c1 | ≤ 1000 |
| CCOC(=O)c1sc2c(ccc(=O)n2-c2ccc(F)cc2)c1Nc1ccccc1C#N | ≤ 1000 |
| CC(=O)c1ccc(-n2c(=O)ccc3c(Nc4cccc(Cl)c4)c(C#N)sc32)cc1 | ≤ 1000 |
